We go through twelve compounds from ChEMBL document CHEMBL5634127, “Synthesis of novel rhodamine type Anthrone Spiro-lactam (ASL) analogues and evaluation of antiviral activity against dengue and chikungunya viruses” (Eur J Med Chem, 2023).

For orientation: CC50 means the concentration that lowers cell viability or growth by half.

Data set [1] in a line: Cytotoxicity against green monkey Vero cells assessed as cell viability at 0.78 to 100 uM incubated for 5 days by MTT assay relative to control. The class given is toxicity, cell-based. As to conditions: chlorocebus sabaeus, dose 0.78-100 µM, time 5 day, read-out: Activity.
Data set [2] deals with Dengue virus. As to the kind of experiment: Antiviral activity against Dengue virus infected in green monkey Vero cells assessed as reduction in colony forming unit at 50 uM incubated for 1 hr after the virus infection and measured after 120 hrs by focus forming unit assay. Format: functional. As to conditions: time 121 hrs.
A short description of data set [3]: Cytotoxicity against green monkey Vero cells incubated for 5 days by MTT assay. Format: toxicity, cell-based. The conditions noted are these: chlorocebus sabaeus, time 5 day.
Data set [4] concerns Chikungunya virus. In words: Antiviral activity against Chikungunya virus infected in green monkey Vero cells assessed as reduction in viral growth at 50 uM incubated for 1 hr along with virus infection and measured after 24 hrs by focus forming unit assay. Format: functional, organism-based. As to conditions: time 25.0 hrs.
Data set [5] relates to Dengue virus. In words: Antiviral activity against Dengue virus infected in green monkey Vero cells assessed as reduction in viral titer at 50 uM incubated for 1 hr after the virus infection and measured after 120 hrs by focus forming unit assay (reference value: 6.134 log10FFU/ml). The conditions noted are these: time 121 hrs. Format: functional.
In data set [6] the test system is Dengue virus. As to the kind of experiment: Antiviral activity against Dengue virus infected in green monkey Vero cells assessed as reduction in colony forming unit incubated for 1 hr after the virus infection and measured after 120 hrs by focus forming unit assay. The class given is functional, organism-based. The conditions noted are these: time 121.0 hrs.
The test system of data set [7] is Chikungunya virus. In words: Antiviral activity against Chikungunya virus infected in green monkey Vero cells assessed as reduction in viral growth at 50 uM preincubated for 1 hr with compound followed by virus infection and measured after 24 hrs by focus forming unit assay. Format: functional, organism-based. The conditions noted are these: time 25.0 hrs.
The test system of data set [8] is Chikungunya virus. As to the kind of experiment: Antiviral activity against Chikungunya virus infected in green monkey Vero cells assessed as reduction in viral growth at 6.25 uM incubated for 1 hr along with virus infection and measured after 24 hrs by focus forming unit assay. As to conditions: time 25.0 hrs. The class given is functional, organism-based.
For data set [9], the system named is Chikungunya virus. As to the kind of experiment: Antiviral activity against Chikungunya virus infected in green monkey Vero cells assessed as reduction in viral growth at 6.25 uM preincubated for 1 hr with compound followed by virus infection and measured after 24 hrs by focus forming unit assay. The class given is functional, organism-based. As to conditions: time 25.0 hrs.

The subject of data set [10] is Chikungunya virus. As to the kind of experiment: Antiviral activity against Chikungunya virus infected in green monkey Vero cells assessed as reduction in viral growth at 3.125 uM incubated for 1 hr along with virus infection and measured after 24 hrs by focus forming unit assay. Format: functional, organism-based. As to conditions: time 25.0 hrs.
The test system of data set [11] is Chikungunya virus. In words: Antiviral activity against Chikungunya virus infected in green monkey Vero cells assessed as reduction in viral growth at 3.125 uM preincubated for 1 hr with compound followed by virus infection and measured after 24 hrs by focus forming unit assay. The class given is functional, organism-based. As to conditions: time 25.0 hrs.
Data set [12] deals with Dengue virus. In words: Antiviral activity against Dengue virus infected in green monkey Vero cells assessed as reduction in viral titer at 100 uM incubated for 1 hr after the virus infection and measured after 120 hrs by focus forming unit assay (reference value: 6.134 log10FFU/ml). The class given is functional. The conditions noted are these: time 121 hrs.
Data set [13] concerns Chikungunya virus. In words: Antiviral activity against Chikungunya virus infected in green monkey Vero cells assessed as reduction in viral growth at 100 uM preincubated for 1 hr with compound followed by virus infection and measured after 24 hrs by focus forming unit assay. The conditions noted are these: time 25.0 hrs. The class given is functional, organism-based.
Data set [14] relates to Chikungunya virus. As to the kind of experiment: Antiviral activity against Chikungunya virus infected in green monkey Vero cells assessed as reduction in viral growth at 100 uM incubated for 1 hr along with virus infection and measured after 24 hrs by focus forming unit assay. The conditions noted are these: time 25.0 hrs. Format: functional, organism-based.
In data set [15] the test system is Dengue virus. As to the kind of experiment: Antiviral activity against Dengue virus infected in green monkey Vero cells assessed as reduction in colony forming unit at 100 uM incubated for 1 hr after the virus infection and measured after 120 hrs by focus forming unit assay. Format: functional. The conditions noted are these: time 121 hrs.
Data set [16] deals with Dengue virus. As to the kind of experiment: Antiviral activity against Dengue virus infected in green monkey Vero cells assessed as reduction in viral titer at 25 uM incubated for 1 hr after the virus infection and measured after 120 hrs by focus forming unit assay (reference value: 6.134 log10FFU/ml). Format: functional. As to conditions: time 121 hrs.
The test system of data set [17] is Chikungunya virus. In words: Antiviral activity against Chikungunya virus infected in green monkey Vero cells assessed as reduction in viral growth incubated for 1 hr after the virus infection and measured after 24 hrs by focus forming unit assay. The conditions noted are these: time 25.0 hrs. The class given is functional, organism-based.
Data set [18] deals with Chikungunya virus. As to the kind of experiment: Antiviral activity against Chikungunya virus infected in green monkey Vero cells assessed as reduction in colony forming unit at 50 uM incubated for 1 hr after the virus infection and measured after 24 hrs by focus forming unit assay. As to conditions: time 25 hrs. The class given is functional.
For data set [19], the system named is Dengue virus. In words: Antiviral activity against Dengue virus infected in green monkey Vero cells assessed as reduction in colony forming unit at 12.5 uM incubated for 1 hr along with virus infection and measured after 120 hrs by focus forming unit assay (reference value: 5.187 log10FFU/ml). The class given is functional. As to conditions: time 121 hrs.
The subject of data set [20] is Chikungunya virus. As to the kind of experiment: Antiviral activity against Chikungunya virus infected in green monkey Vero cells assessed as reduction in viral growth at 12.5 uM incubated for 1 hr along with virus infection and measured after 24 hrs by focus forming unit assay. Format: functional, organism-based. As to conditions: time 25.0 hrs.
The test system of data set [21] is Dengue virus. As to the kind of experiment: Antiviral activity against Dengue virus infected in green monkey Vero cells assessed as reduction in colony forming unit incubated for 1 hr along with virus infection and measured after 120 hrs by focus forming unit assay. The class given is functional, organism-based. As to conditions: time 121.0 hrs.
Data set [22] has as its system Chikungunya virus. As to the kind of experiment: Antiviral activity against Chikungunya virus infected in green monkey Vero cells assessed as reduction in viral growth at 12.5 uM preincubated for 1 hr with compound followed by virus infection and measured after 24 hrs by focus forming unit assay. Format: functional, organism-based. The conditions noted are these: time 25.0 hrs.

Calls of active or inactive are those of the source. No cut-off for these calls is given here.

As for `COc1cc(/C=N/N2C(=O)c3cc(OC)c(OC)cc3C23c2cc(OC)c(OC)cc2C(=O)c2cc(OC)c(OC)cc23)ccc1O`, the viability at 120 h, up to 100 µM in [1] was at least 90%. The figures for the Activity result in the data set with Dengue virus [2] and in the data set with Dengue virus [6] were “>=1 log10CFU” and “Dose-Dependent Effect”, respectively. In addition, the CC50 at 120 h in data set [3] was 113 µM. Moreover, the outcome with Chikungunya virus [4] and with Chikungunya virus [7] was inactive. In the data set with Dengue virus [5], the Remaining viral titer amounted to 5.23 log10FFU/ml.
In the case of `COc1cc2c(cc1OC)C1(c3cc(OC)c(OC)cc3C2=O)c2cc(OC)c(OC)cc2C(=O)N1/N=C/c1c2ccccc2cc2ccccc12`, the viability at 120 h, up to 100 µM in data set [1] was at least 90%. The compound also had a 50% cytotoxic concentration (CC50) at 120 h in data set [3] of 352 µM. The outcome with Chikungunya virus [4] and in the data set with Chikungunya virus [7] was inactive.
As to `COc1cc2c(cc1OC)C1(c3cc(OC)c(OC)cc3C2=O)c2cc(OC)c(OC)cc2C(=O)N1/N=C/c1ccc2ccccc2n1`, the result in the data set with Chikungunya virus [8] and in the data set on Chikungunya virus [9] was inactive. Moreover, in data set [1], the viability at 120 h, up to 100 µM is at least 90%. Half-maximal cytotoxicity in data set [3] (CC50 at 120 h) was put at 100 µM.
As for `COc1cc2c(cc1OC)C1(c3cc(OC)c(OC)cc3C2=O)c2cc(OC)c(OC)cc2C(=O)N1/N=C/c1cccs1`, in data set [1], the viability at 120 h, up to 100 µM was at least 90%. Besides, the outcome in the data set with Chikungunya virus [10] and in the data set on Chikungunya virus [11] was inactive. Besides, the CC50 at 120 h in [3] was found to be 52.7 µM.
Turning to `COc1cc2c(cc1OC)C1(c3cc(OC)c(OC)cc3C2=O)c2cc(OC)c(OC)cc2C(=O)N1NC(=O)c1ccc([N+](=O)[O-])cc1`, the viability at 120 h, up to 100 µM in data set [1] is at least 90%. Also, in data set [3], the CC50 at 120 h was determined as 97.3 µM. Besides, the result in the data set with Chikungunya virus [4] and in the data set on Chikungunya virus [7] was inactive.
For the compound `COc1cc2c(cc1OC)C1(c3cc(OC)c(OC)cc3C2=O)c2cc(OC)c(OC)cc2C(=O)N1/N=C/c1ccccc1`, the viability at 120 h, up to 100 µM in [1] is at least 90%. In addition, the CC50 at 120 h in data set [3] is over 100 µM. Besides, the Activity with Dengue virus [12] was 5.03 log10FFU/ml; in the data set on Dengue virus [6], “Dose-Dependent Effect”; with Dengue virus [15], “>=1 log10CFU”. Moreover, the result in the data set with Chikungunya virus [13] and in the data set with Chikungunya virus [14] was inactive.
Turning to `COc1cc2c(cc1OC)C1(c3cc(OC)c(OC)cc3C2=O)c2cc(OC)c(OC)cc2C(=O)N1/N=C/c1cc(OC)c(O)c(OC)c1`, in data set [1], the viability at 120 h, up to 100 µM is at least 90%. This compound also showed a 50% cytotoxic concentration (CC50) at 120 h in data set [3] of over 100 µM. Also, the Remaining viral titer with Dengue virus [5] is reported as 5.052 log10FFU/ml. Also, the Activity in the data set on Dengue virus [12] was 3.994 log10FFU/ml; in the data set with Dengue virus [6], “Dose-Dependent Effect”; in the data set with Dengue virus [15], “>=1 log10CFU”. Further, the result with Chikungunya virus [13] and in the data set on Chikungunya virus [14] was inactive.
As for `COc1cc2c(cc1OC)C1(c3cc(OC)c(OC)cc3C2=O)c2cc(OC)c(OC)cc2C(=O)N1/N=C/c1cc(OC)c(OC)c(OC)c1`, the viability at 120 h, up to 100 µM in data set [1] is at least 90%. The Activity result with Dengue virus [2] was “>=1 log10CFU”; in the data set on Dengue virus [16], 5.064 log10FFU/ml; in the data set with Chikungunya virus [17], “Dose-Dependent Effect”; in the data set with Chikungunya virus [18], “>=1 log10CFU”; in the data set on Dengue virus [6], “Dose-Dependent Effect”. In [3], this compound returned a half-maximal cytotoxic concentration (CC50) at 120 h of 99.8 µM. Besides, the outcome with Chikungunya virus [4] and in the data set with Chikungunya virus [7] was inactive. Besides, the Remaining viral titer in the data set with Dengue virus [5] worked out at 4.098 log10FFU/ml.
Regarding `COc1cc2c(cc1OC)C1(c3cc(OC)c(OC)cc3C2=O)c2cc(OC)c(OC)cc2C(=O)N1/N=C/c1ccccc1O`, the Activity was 4.101 log10FFU/ml in the data set on Dengue virus [19] and “Dose-Dependent Effect” in the data set on Dengue virus [21]. Moreover, the result in the data set on Chikungunya virus [20] and in the data set on Chikungunya virus [22] was inactive. The viability at 120 h, up to 100 µM in data set [1] was at least 90%. Further, half-maximal cytotoxicity in data set [3] (CC50 at 120 h) was put at 173 µM.
For the compound `COc1cc2c(cc1OC)C1(c3cc(OC)c(OC)cc3C2=O)c2cc(OC)c(OC)cc2C(=O)N1/N=C/c1ccc(N(C)C)cc1`, in data set [1], the viability at 120 h, up to 100 µM was at least 90%. Also, the CC50 at 120 h in data set [3] came to 122 µM. The outcome in the data set on Chikungunya virus [4] and in the data set with Chikungunya virus [7] was inactive.
Regarding `COc1cc2c(cc1OC)C1(c3cc(OC)c(OC)cc3C2=O)c2cc(OC)c(OC)cc2C(=O)N1NC(=O)c1cc(C(F)(F)F)cc(C(F)(F)F)c1`, the viability at 120 h, up to 100 µM in data set [1] is at least 90%. The same compound came in with a 50% cytotoxic concentration (CC50) at 120 h in [3] of 98.9 µM. Further, the result in the data set on Chikungunya virus [4] and with Chikungunya virus [7] was inactive. Also, the Activity entry is “Dose-Dependent Effect” in the data set on Chikungunya virus [17] and “>=1 log10CFU” in the data set on Chikungunya virus [18].
On to `COc1cc2c(cc1OC)C1(c3cc(OC)c(OC)cc3C2=O)c2cc(OC)c(OC)cc2C(=O)N1/N=C/c1ccc(Br)cc1`, for which, in data set [1], the viability at 120 h, up to 100 µM was at least 90%. The Activity result in the data set on Dengue virus [2] was “>=1 log10CFU”; in the data set with Dengue virus [6], “Dose-Dependent Effect”. In data set [3], this compound showed a 50% cytotoxic concentration (CC50) at 120 h of 181 µM. Also, the result with Chikungunya virus [4] and with Chikungunya virus [7] was inactive. Also, in the data set with Dengue virus [5], the Remaining viral titer was 5.431 log10FFU/ml.
